Legend:
[1] = system: HaCaT keratinocytes; assay: Cell migration assay (in vitro scratch test); type: cell-based, human; conditions: 25 μg/mL, 24 h, serum-free DMEM, Mitomycin C 5 μg/mL, vs. control without peptide, three independent experiments
Method: Fibroblasts and keratinocytes were seeded (5x10^5 cells/well) in 6-well plates. When desired monolayer confluence was reached, cells were starved for 24 hours in serum-free DMEM. The monolayer was scratched then with 200μL-pipette tip. The floating cells and cell debris were removed by double washing in PBS, further replaced with a fresh serum-free medium. Wounded monolayers were incubated for the next 24 h in the presence of tested peptides used at concentration of 25 μg/mL and 5 μg/mL of Mitomycin C (Sigma Aldrich) to prevent proliferation. At the end of the experiment medium was removed and the cells were fixed with 3.7% PFA for 5 min, stained for the next 30 min with 0.05% crystal violet solution, washed several times with distilled water and the plates were left inverted for a couple of minutes to drain. The wounded areas were then photographed by means of Zeiss Observer D1 microscope equipped with camera AxioCam and analyzed with AxioVision software (Carl Zeiss, Germany). Migration activity of the cells treated with the tested peptides were expressed as the percentage of the wounded area with respect to the control probe (cell cultures without any of the peptide), assumed as 100%.
An in vitro scratch test was performed to investigate the effect of the analyzed compounds on keratinocytes and fibroblasts migration. Evaluation was based on the efficiency of the invasion of the monolayer cells to the prewounded area within 24 h after stimulation with the appropriate compound added at concetration of 25μg/mL.
Fig 2 Effect of the peptides on HaCaT keratinocytes and fibroblasts cell migration in the in vitro scratch test. HaCaT cells and fibroblasts were grown in 6-well plates until the 100% confluence was reached, then cells were starved for the next 12 hours in DMEM without 10% FCS and scratched once vertically with a 200μL pipette tip. After being washed two times with sterile PBS, a fresh portion of DMEM medium was added and cells were treated with the tested peptides applied at their optimal doses (25 μg/mL). Migration was analyzed after 24 hours by means of Zeiss Observer D1 microscope, wounding areas were analyzed with AxioVision software and expressed as the percentage of the wound width in comparison to the control sample (cells incubated in DMEM without FCS). Control+ FCS corresponds to the sample with cells incubated in the medium containing 10% FCS and was treated as the additional positive control. Data represent the mean ± SD of three independent experiments. *P < 0.05, **P < 0.01, ***P < 0.001 vs. control.

[2] = system: Proteus mirabilis; assay: MIC, broth microdilution; type: cell-based; conditions: Mueller-Hinton broth, approximately 10^5 CFU/mL, 37°C, 24 h, absorbance 590 nm, at least triplicate
Method: Luria-Bertani broth (LB) and Sabouraud Dextrose broth (SB) (Biocorp, Poland) were used for cultivation of bacteria and fungi strains, respectively. Antimicrobial activity of peptides was analyzed through determination of MIC (minimal inhibitory concentration) parameter according to the standard microdilution technique performed on 96-well plates. Mueller-Hinton broth (MHB) was used as the working medium for all bacterial strains, while in case of fungi it was additionally supplemented with 2% glucose.
Briefly, inoculum was prepared from freshly grown cultures of microorganisms being at their exponential phase of growth. […] Then plates were incubated overnight at 37°C and absorbance was read at 590 nm after 24 h. […]
All peptides were screened against the wide range of microorganisms, including Gram-negative, Gram-positive bacteria and fungi from Candida species (Table 2). […] All assays were performed on liquid Mueller-Hinton broth, which was additionally supplemented with 2% glucose when fungicidal activity towards Candida spps. was analyzed.

Row | Substance | Effect on keratinocyte migration (scratch test), in words [1] | MIC P.mirabilis [2]
1 | YAGFLR-PEG-IKKILSKIKKLL-NH2 [DAL-PEG-DK5, conjugate of dalargin and DK5 joined by PEG-linker] | neutral or slightly stimulative | 
2 | IKKILSKIKKLL-NH2 [DK5, Lys-rich derivative of amphibian AMP temporin-1CEb, …-NH2, reference compound] |  | NI ^a)
